Measurements: patent publication US20250387409A1, “3-BETA-HYDROXY-3-ALPHA-ETHYL STEROIDS FOR MODULATION OF THE ALPHA-3 SUBTYPE OF THE GABAA RECEPTOR” (priority 2021, published 2025)

Experiments:
[1] = molecular target: T1, human α2-β3-γ2S GABAA-receptor subtype (Homo sapiens, UniProt P28472+P47869); test: Patch clamp (Dynaflow) GABA-mediated current response, HEK-293 cells, α2β3γ2S; assay type: cell-based; conditions: 1 μM steroid
T1 construct: expressed in transfected cells
Source text: (§1) In these tests the protocol was optimized to be like the physiological conditions in the synaptic cleft.
(§2) Preparation of cell lines: HEK-293 cells permanently transfected with the human α1-β2-γ2L, α2-β3-γ2S, α3-ββ3-γ2L, α4-β3-δ or α5-β3-γ2L GABAA-receptor subtypes were used. The cell lines permanently expressing a functional human GABAA-receptor was made in following steps. The human GABAA-receptor subunits e.g. α1 (308-1727 NM_000806), β2 (214-1679 NM_000813), γ2L (290-1785 NM_198904), α2, β3, γ2S, α3, α4, δ and α5 including introduced Kozac sequences just before the start codons were subcloned into mammalian expression vectors containing Geneticin, Hygromycin B, and Zeocin resistance, respectively. A HEK-293 cell line stably expressing the three GABAA-receptor subunits was produced by transfection of the subunits, one at a time. The transfection was followed by selection with the appropriate antibiotics, cell separation with the use of subunit specific antibodies and production of single cell colonies. Produced cell lines were analysed with immunocytochemistry for the three GABAA-receptor subunits, followed by selection of a suitable cell line showing, for the GABAA-receptor normal and good reactivity in a patch-clamp analysis (see below) towards GABA and the GAMS THDOC.
(§3) Cell culture: HEK-293 cells, permanently transfected with human α1-β2-γ2L, α2-β3-γ2S, α3-β3-γ2L, α4-β3-δ and α5-β3-γ2L GABAA-receptor subtypes, were seeded at a density of 3×10^4/25 cm^2 in cell binding culture flask. The transfected cells were used for patch-clamp experiments 3 days after seeding. When using the cells for patch-clamp experiments the cells were washed twice with oxygen-bubbled EC-solution (see below). About 5 mL EC was then added and the cells were kept in the incubator for about 15 minutes. After 15 minutes the cells came loose from the bottom of the flask and were separated by carefully sucking couple of times with a Pasteur pipette.
(§4) Dynaflow™ system: Dynaflow™ system with resolve chips was used for all patch-clamp experiments. The resolve chips is made of non-sticky materials. The channel width is 150 μm and the height 50 μm. The well volume is 280 μL. Run time at the flow rate of 26 μL/min is […]. The pump settings were as follow: Omnifix 2 ml syringe with inner diameter of 9.65 mm was used. The syringe pump flow rate of chip was 26 μL/min.
(§5) Steroids and GABA: GABA was dissolved in EC-solution by ultrasound for about 40 minutes to the concentration of 10 mM in room temperature. All steroids were dissolved to the concentration of 6 mM in dimethyl sulfoxide (DMSO). The DMSO concentration was 0.1% in all end-solutions, including the wash solution (EC) and the solution with GABA alone. End-solutions are the solutions added into the wells of the chip. […]

GABAA-receptors = test: Patch clamp, steroid alone without GABA present; assay type: cell-based, human
Source text: as §1
as §2, with “THDOC. […]” for “THDOC.”

[2] = molecular target: T2, human α3-β3-γ2L GABAA-receptor subtype (Homo sapiens, UniProt P28472+P34903); test: Patch clamp (Dynaflow) GABA-mediated current response, HEK-293 cells, α3β3γ2L; assay type: cell-based; conditions: for effect on GABA (in words) / effect on GABA response: 1 μM steroid; for activation of the receptor in the absence of GABA / Imax on 100 μM GABA mediated current response: 0.01-10 μM steroid; for activation of the receptor in the absence of GABA: no GABA, data not shown; for Imax on 100 μM GABA mediated current response: from best fit curve
T2 construct: expressed in transfected cells
T2 sequence (P34903 29-492): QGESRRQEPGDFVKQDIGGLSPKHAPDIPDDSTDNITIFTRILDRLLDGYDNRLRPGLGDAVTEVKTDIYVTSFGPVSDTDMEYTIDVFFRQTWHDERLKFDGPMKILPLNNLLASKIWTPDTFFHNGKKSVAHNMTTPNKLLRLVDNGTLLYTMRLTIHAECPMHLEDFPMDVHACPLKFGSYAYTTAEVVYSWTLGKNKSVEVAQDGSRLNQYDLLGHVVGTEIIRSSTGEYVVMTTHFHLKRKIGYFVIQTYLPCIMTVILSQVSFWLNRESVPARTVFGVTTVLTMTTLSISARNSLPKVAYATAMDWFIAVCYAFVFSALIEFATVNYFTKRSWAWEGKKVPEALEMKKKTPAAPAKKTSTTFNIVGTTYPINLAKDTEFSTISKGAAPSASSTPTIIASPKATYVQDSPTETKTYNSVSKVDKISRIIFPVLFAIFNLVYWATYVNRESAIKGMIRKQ
T2 sequence (P28472 26-473): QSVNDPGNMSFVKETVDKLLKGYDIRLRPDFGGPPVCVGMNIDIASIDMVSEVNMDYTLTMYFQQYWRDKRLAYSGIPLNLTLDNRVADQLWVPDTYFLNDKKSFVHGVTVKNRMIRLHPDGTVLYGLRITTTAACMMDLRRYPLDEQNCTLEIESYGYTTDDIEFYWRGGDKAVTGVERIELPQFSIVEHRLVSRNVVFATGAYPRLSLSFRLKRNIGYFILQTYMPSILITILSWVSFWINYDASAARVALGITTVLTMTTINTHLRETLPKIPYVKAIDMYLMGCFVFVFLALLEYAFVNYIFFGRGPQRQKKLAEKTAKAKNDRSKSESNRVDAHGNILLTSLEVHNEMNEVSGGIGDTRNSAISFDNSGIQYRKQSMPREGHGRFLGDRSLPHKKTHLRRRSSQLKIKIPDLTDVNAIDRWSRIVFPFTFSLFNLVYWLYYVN
T2 sequence (P18507 40-475 partner): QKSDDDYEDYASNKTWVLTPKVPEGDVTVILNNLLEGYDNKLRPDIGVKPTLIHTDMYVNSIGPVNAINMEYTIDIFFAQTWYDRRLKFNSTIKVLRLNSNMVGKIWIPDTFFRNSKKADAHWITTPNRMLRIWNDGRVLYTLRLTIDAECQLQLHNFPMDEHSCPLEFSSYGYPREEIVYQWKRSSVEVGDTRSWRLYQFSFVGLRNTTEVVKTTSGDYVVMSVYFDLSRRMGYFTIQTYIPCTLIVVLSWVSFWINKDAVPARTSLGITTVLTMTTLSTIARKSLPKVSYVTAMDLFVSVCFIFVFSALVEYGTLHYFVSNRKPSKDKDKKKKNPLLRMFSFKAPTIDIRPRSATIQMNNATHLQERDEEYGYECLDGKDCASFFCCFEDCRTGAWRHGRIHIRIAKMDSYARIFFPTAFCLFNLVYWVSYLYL
Source text: as §1, §2, §3, §4
(§6) Steroids and GABA: GABA was dissolved in EC-solution by ultrasound for about 40 minutes to the concentration of 10 mM in room temperature. All steroids were dissolved to the concentration of 6 mM in dimethyl sulfoxide (DMSO). The DMSO concentration was 0.1% in all end-solutions, including the wash solution (EC) and the solution with GABA alone. End-solutions are the solutions added into the wells of the chip.
(§7) Electrophysiology: Patch electrodes were pulled from 1.5 mm O.D., 0.86 mm I.D. borosilicate capillary glass without filament. […] The intracellular solution (IC) comprised of (in mM): 140 Cs-gluconate, 3.0 NaCl, 1.2 MgCl2, 1.0 EGTA, 10 HEPES. pH was adjusted to 7.2 with CsOH. The extracellular (EC) solution used during recordings contained (in mM): 137 NaCl, 5.0 KCl, 1.0 CaCl2), 1.2 MgCl2, 10 HEPES, 10 glucose. pH was adjusted with NaOH to 7.4. After compensating for the liquid junction potential, a steady holding potential of −17 mV was used in all experiments. In physiological conditions the HEK-293 has a resting potential at −40 mV and a low concentration of chloride ions inside the cell. By using the holding potential of-17 mV and the intracellular solution with low chloride ion concentration the chloride ions flux into the cell when the receptors are activated. All experiments were performed at room temperature (21 to 23° C.). The following standard protocol was used for all experiments.
(§8) GABA applications: By using the Dynaflow equipment it is possible to study transfected HEK-293 during almost physiological conditions.

[3] = molecular target: T3, human α1-β2-γ2L GABAA-receptor subtype (Homo sapiens, UniProt P14867+P47870); test: Patch clamp (Dynaflow) GABA-mediated current response, HEK-293 cells, α1β2γ2L; assay type: cell-based; conditions: 1 μM steroid, α1β2γ2L; for effect on GABA response: mean ± SEM, + enhancement, − reduction
T3 construct: expressed in transfected cells
T3 sequence (P14867 28-456): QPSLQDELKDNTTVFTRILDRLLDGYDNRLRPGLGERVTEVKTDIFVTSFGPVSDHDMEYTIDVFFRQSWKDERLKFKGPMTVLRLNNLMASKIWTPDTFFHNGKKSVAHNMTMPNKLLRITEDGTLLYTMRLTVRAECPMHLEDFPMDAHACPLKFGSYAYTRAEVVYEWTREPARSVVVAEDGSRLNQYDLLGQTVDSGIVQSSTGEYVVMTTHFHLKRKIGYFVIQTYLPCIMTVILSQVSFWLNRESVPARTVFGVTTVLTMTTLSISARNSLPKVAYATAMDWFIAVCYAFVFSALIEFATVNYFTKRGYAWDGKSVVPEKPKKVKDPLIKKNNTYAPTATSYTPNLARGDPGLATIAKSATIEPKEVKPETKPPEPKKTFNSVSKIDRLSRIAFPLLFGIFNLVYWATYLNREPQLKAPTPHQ
T3 sequence (P47870 26-474 isoform P47870-1 limits assumed): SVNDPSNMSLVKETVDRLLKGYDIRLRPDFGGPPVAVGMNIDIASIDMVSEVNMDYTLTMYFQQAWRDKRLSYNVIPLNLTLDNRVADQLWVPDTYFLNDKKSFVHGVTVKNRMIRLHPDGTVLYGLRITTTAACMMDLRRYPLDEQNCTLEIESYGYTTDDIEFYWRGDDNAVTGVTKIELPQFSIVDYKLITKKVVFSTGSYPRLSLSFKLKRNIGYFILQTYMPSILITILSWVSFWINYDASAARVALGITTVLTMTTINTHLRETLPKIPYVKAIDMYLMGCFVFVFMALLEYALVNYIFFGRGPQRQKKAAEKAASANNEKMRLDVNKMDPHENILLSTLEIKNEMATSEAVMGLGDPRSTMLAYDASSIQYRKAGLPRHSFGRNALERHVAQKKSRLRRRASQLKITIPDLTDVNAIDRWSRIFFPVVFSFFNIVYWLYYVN
T3 sequence (P18507 40-475 partner): as the sequence (P18507 40-475 partner) above
Source text: as §1, §2, §3, §4, §6
as §7, with “By using the holding potential of-17 mV and the intracellular solution with low chloride ion concentration the chloride ions flux into the cell when the receptors are activated. All experiments were performed at room temperature (21 to 23° C.). The following standard protocol was used for all experiments.” left out

[4] = molecular target: T4, human α5-β3-γ2L GABAA-receptor subtype (Homo sapiens, UniProt P28472+P31644); test: Patch clamp (Dynaflow) GABA-mediated current response, HEK-293 cells, α5β3γ2L; assay type: cell-based; conditions: 1 μM steroid
T4 construct: expressed in transfected cells
T4 sequence (P31644 32-462): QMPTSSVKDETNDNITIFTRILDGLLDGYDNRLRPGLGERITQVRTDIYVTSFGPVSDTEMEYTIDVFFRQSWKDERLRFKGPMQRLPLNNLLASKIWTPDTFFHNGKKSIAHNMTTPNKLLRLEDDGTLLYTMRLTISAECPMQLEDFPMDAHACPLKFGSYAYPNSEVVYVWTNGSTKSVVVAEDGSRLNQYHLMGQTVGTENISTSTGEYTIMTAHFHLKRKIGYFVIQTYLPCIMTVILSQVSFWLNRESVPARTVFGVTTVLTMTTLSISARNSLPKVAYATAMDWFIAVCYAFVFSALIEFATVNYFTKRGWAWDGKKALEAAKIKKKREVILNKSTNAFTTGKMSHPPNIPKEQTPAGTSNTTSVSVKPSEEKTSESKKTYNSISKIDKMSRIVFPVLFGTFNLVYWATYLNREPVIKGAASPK
T4 sequence (P28472 26-473): as the sequence (P28472 26-473) above
T4 sequence (P18507 40-475 partner): as the sequence (P18507 40-475 partner) above
Source text: as §1, §2, §3, §4, §5

[5] = molecular target: T5, human α4-β3-δ GABAA-receptor subtype (Homo sapiens, UniProt P28472+P48169); test: Patch clamp (Dynaflow) GABA-mediated current response, HEK-293 cells, α4β3δ; assay type: cell-based; conditions: 1 μM steroid
T5 construct: expressed in transfected cells
T5 sequence (P48169 36-554): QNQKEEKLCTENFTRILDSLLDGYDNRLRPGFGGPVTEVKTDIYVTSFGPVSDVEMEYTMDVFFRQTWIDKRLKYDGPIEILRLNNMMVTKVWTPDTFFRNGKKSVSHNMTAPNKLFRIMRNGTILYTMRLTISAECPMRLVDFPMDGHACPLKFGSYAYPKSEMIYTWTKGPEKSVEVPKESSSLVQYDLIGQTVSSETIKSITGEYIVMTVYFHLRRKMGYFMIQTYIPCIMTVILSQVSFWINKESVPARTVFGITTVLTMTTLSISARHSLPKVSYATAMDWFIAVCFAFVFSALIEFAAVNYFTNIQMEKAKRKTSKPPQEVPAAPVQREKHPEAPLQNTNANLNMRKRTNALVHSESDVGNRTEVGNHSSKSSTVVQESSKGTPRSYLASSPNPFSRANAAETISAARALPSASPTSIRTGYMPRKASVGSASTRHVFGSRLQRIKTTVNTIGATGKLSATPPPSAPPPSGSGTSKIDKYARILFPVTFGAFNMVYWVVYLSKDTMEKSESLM
T5 sequence (P28472 26-473): as the sequence (P28472 26-473) above
T5 sequence (O14764 25-452 partner): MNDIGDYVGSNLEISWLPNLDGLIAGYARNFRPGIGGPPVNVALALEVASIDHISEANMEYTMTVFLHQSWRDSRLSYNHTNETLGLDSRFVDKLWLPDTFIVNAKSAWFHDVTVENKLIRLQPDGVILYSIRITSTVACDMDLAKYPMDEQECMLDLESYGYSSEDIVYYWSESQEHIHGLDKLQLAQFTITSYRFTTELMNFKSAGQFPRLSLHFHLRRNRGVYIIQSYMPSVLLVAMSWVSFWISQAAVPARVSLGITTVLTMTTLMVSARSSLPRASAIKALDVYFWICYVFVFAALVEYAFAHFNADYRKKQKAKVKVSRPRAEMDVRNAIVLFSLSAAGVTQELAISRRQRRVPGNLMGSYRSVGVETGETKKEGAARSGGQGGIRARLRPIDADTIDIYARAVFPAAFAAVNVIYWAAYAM
Source text: as §1, §2, §3, §4, §5

[6] = molecular target: T6, human GABAA-receptor subtype α3β3γ2L (Homo sapiens, UniProt P28472+P34903); test: Patch clamp (Dynaflow) THDOC enhancement of GABA response, HEK-293 cells, α3β3γ2L; assay type: cell-based; conditions: for reduction of THDOC-enhanced GABA effect, Mean ± SEM %: 100 nM THDOC, 100 μM GABA, GABA response subtracted
T6 construct: expressed in transfected cells
T6 sequence (P34903 29-492): as the sequence (P34903 29-492) above
T6 sequence (P28472 26-473): as the sequence (P28472 26-473) above
T6 sequence (P18507 40-475 partner): as the sequence (P18507 40-475 partner) above
Source text: as §1, §2, §3, §4, §6, §7, §8

T1 sequence (P47869 29-451): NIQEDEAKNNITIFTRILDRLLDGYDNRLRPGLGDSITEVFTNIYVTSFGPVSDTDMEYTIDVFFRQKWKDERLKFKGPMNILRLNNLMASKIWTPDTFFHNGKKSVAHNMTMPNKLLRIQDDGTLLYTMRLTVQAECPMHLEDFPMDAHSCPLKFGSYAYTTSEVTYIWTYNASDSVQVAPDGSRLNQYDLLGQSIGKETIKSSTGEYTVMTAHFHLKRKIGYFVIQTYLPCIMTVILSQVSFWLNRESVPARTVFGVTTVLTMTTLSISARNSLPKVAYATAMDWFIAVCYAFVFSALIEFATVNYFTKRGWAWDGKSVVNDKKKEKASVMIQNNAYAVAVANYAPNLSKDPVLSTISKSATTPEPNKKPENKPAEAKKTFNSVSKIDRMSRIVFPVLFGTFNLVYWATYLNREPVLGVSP
T1 sequence (P28472 26-473): as the sequence (P28472 26-473) above
T1 sequence (P18507 40-467 isoform P18507-1 partner limits assumed): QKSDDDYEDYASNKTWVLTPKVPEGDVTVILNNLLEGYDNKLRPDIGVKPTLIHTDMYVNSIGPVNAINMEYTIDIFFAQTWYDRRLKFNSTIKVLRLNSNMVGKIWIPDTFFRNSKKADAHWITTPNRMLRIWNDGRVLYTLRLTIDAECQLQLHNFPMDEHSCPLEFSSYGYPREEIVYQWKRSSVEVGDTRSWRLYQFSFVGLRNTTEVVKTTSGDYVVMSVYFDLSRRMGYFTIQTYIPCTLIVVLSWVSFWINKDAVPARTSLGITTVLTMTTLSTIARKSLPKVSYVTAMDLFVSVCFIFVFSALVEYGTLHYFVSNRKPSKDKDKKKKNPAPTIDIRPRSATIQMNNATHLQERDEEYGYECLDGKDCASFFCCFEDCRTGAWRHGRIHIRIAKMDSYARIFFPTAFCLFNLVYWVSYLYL

SMILES | effect on GABA (in words) [1] | effect on GABA response [1] | effect on the GABAA-receptors alone without GABA present (GABAA-receptors) | IC50 [2] | effect on GABA (in words) ([2]; α3β3γ2L) | effect on GABA response ([2]; α3β3γ2L) | activation of the receptor in the absence of GABA [2] | Imax on 100 μM GABA mediated current response ([2]; α3β3γ2L) | effect on 100 μM GABA response, Mean ± SEM % ([2]; steroid conc. 0.01 μM, α3β3γ2L) | effect on 100 μM GABA response, Mean ± SEM % ([2]; steroid conc. 0.03 μM, α3β3γ2L) | effect on 100 μM GABA response, Mean ± SEM % ([2]; steroid conc. 0.1 μM, α3β3γ2L) | effect on 100 μM GABA response, Mean ± SEM % ([2]; steroid conc. 0.3 μM, α3β3γ2L) | effect on 100 μM GABA response, Mean ± SEM % ([2]; steroid conc. 1 μM, α3β3γ2L) | effect on 100 μM GABA response, Mean ± SEM % ([2]; steroid conc. 3 μM, α3β3γ2L) | effect on 100 μM GABA response, Mean ± SEM % ([2]; steroid conc. 10 μM, α3β3γ2L) | effect on GABA (in words) [3] | effect on GABA response [3] | effect on GABA (in words) [4] | effect on GABA response [4] | effect on GABA (in words) [5] | further results
CC[C@]1(O)CC[C@@]2(C)[C@@H](CC[C@@H]3[C@@H]2CC[C@]2(C)C(=O)CC[C@@H]32)C1 [3α-ethyl-3β-hydroxy-5α-androstan-17-one] | significant antagonistic effect | −29 ± 1.3% | no effect | 0.9 µM | significant antagonistic effect | −38 ± 2.4% | did activate the receptor in the absence of GABA | −77% | +6.6 ± 2.2% | −1.6 ± 0.7% | +4.4 ± 3.0% | −11 ± 0.7% | −39 ± 3.1% | −67 ± 3.0% | −75 ± 3.0% | significant antagonistic effect | −9.3 ± 1.3% | significant antagonistic effect | −38 ± 2.0% | significant antagonistic effect | significant reducing effect on 100 μM GABA response ([2]; at 0.3 μM, α3β3γ2L): more than 10%; concentration at which antagonistic effect against GABAs effect is seen ([2]; α3β3γ2L): ≥ 0.3 µM; effect on GABA response [5]: −12 ± 2.3%; reduction of THDOC-enhanced GABA effect, Mean ± SEM % ([6]; steroid conc. 0.03 μM): −4.4 ± 8.5%; reduction of THDOC-enhanced GABA effect, Mean ± SEM % ([6]; steroid conc. 0.1 μM): −35 ± 8.8%; reduction of THDOC-enhanced GABA effect, Mean ± SEM % ([6]; steroid conc. 0.3 μM): −72 ± 8.3%; reduction of THDOC-enhanced GABA effect, Mean ± SEM % ([6]; steroid conc. 1 μM): −120 ± 5.6%; reduction of THDOC-enhanced GABA effect, Mean ± SEM % ([6]; steroid conc. 3 μM): −202 ± 13%; concentration at which antagonistic effect on THDOC enhancement of GABA is seen ([6]; α3β3γ2L): ≥ 0.1 µM
CC[C@]1(O)CC[C@@]2(C)[C@@H](CC[C@@H]3[C@@H]2CC[C@]2(C)[C@@H](C(C)=O)CC[C@@H]32)C1 [3α-ethyl-3β-hydroxy-5α-pregnan-20-one] | no significant antagonistic or agonistic effect | +0.6 ± 2.3% | no effect | 1.7 µM | antagonizing effect | −8.5 ± 1.9% | did activate the receptor in the absence of GABA | −47% | +3.7 ± 2.4% | +9.1 ± 4.4% | +1.2 ± 4.2% | +15 ± 4.7% | −8.1 ± 2.7% | −32 ± 4.0% | −46 ± 6.8% | agonistic enhancing effect | +6.0 ± 2.0% | no significant antagonistic or agonistic effect | +3.2 ± 2.6% | no significant antagonistic or agonistic effect | significant reducing effect on 100 μM GABA response ([2]; at 3 μM, α3β3γ2L): more than 30%; effect on GABA response [5]: +6.5 ± 2.5%; IC50 [6]: 0.4 µM; block of the THDOC enhancement ([6]; 3 μM steroid): completely block the THDOC enhancement; effect on THDOC's autonomic opening of the α3β3γ2L GABAA-receptor ([6]; in the range of the vehicle): slight agonistic effect; reduction of THDOC-enhanced GABA effect, Mean ± SEM % ([6]; steroid conc. 0.03 μM): +19 ± 7.4%; reduction of THDOC-enhanced GABA effect, Mean ± SEM % ([6]; steroid conc. 0.1 μM): −7.7 ± 12%; reduction of THDOC-enhanced GABA effect, Mean ± SEM % ([6]; steroid conc. 0.3 μM): −34 ± 6.7%; reduction of THDOC-enhanced GABA effect, Mean ± SEM % ([6]; steroid conc. 1 μM): −78 ± 8.8%; reduction of THDOC-enhanced GABA effect, Mean ± SEM % ([6]; steroid conc. 3 μM): −141 ± 15%; concentrations at which antagonist against THDOC enhancement of GABA ([6]; α3β3γ2L): above 300 nM
